From patent publication US8304529B2, “Dinucleotide MRNA cap analogs” (Life Technologies Corporation, priority 2006, dated 2012)

Columns and labels:
HeLa cells = assay: Luciferase protein expression after transfection of capped luciferase RNA into HeLa cells; assay type: cell-based; details: for protein expression compared with mCAP: capped luciferase RNAs with poly(A) tail, different time points after transfection, higher than mCAP
Experimental: Structures were confirmed by ^1H NMR and ^31P NMR. Transcripts produced with T7 RNA polymerases using “anti-reverse” cap analogs (ARCAs) were of the predicted length and indistinguishable in size and homogeneity from those produced with m^7GpppG. Transfection assays were performed by using standard cap analog-capped and ARCA-capped luciferase in in vitro transcribed RNA with HeLa cells.

[1] = system: phage RNA polymerase such as T7, T3 or SP6; details: cited from earlier work

| Compound | protein expression compared with mCAP (HeLa cells) | attachment of cap to RNA in the reverse orientation ([1]; NTPs and cap RNA present in comparable concentrations) | capped RNA in transcription product ([1]; m7GpppG to GTP 4:1, mMESSAGE mMACHINE kit, rest 20% uncapped) | translation of capped transcripts in transfected cells (HeLa cells; compared with mCAP, double methylated and ARCA capped luciferase RNAs) |
| --- | --- | --- | --- | --- |
| CO[C@H]1[C@@H](O)[C@H](n2c[n+](C)c3c(=O)[nH]c(N)nc32)O[C@@H]1COP(=O)(O)OP(=O)(O)OP(=O)(O)OC[C@H]1O[C@@H](n2cnc3c(=O)[nH]c(N)nc32)[C@H](O)[C@@H]1O [ARCA, m2^7,3′OG[5′]ppp[5′]G] | 3 fold | – | – | – |
| C[n+]1cn([C@@H]2O[C@H](COP(=O)(O)OP(=O)(O)OP(=O)(O)OC[C@H]3O[C@@H](n4c[n+](C)c5c(=O)[nH]c(N)nc54)[C@H](O)[C@@H]3O)[C@@H](O)[C@H]2O)c2nc(N)[nH]c(=O)c21 [double methylated cap, m^7 (5′)Gppp(5′)m^7G] | one fold higher | – | – | – |
| Cn1c[n+]([C@@H]2O[C@H](COP(=O)(O)OP(=O)(O)OP(=O)(O)OC[C@H]3O[C@@H](n4cnc5c(=O)[nH]c(N)nc54)[C@H](O)[C@@H]3O)[C@@H](O)[C@H]2O)c2nc(N)[nH]c(=O)c21 [mCAP, m^7G(5′)ppp(5′)G] | – | around 50% | 80% | – |
| COC1C(COP(=O)([O-])OP(=O)(O)OP(=O)([O-])OCC2OC(n3c[n+](C)c4c(=O)[nH]c(N)nc43)C(O)C2O)OC(n2c[n+](C)c3c(=O)[nH]c(N)nc32)C1O (stereo not drawn) [triple methylated cap, m2^7,3′OG[5′]ppp[5′]m^7G] | 4 fold | – | – | more highly translated |
